IC50 data for 42 molecules are collected here from patent US12091387B2, “Quinoline cGAS antagonist compounds” (IMMUNESENSOR THERAPEUTICS, INC., priority 2022, dated 2024).

Assay [1] relates to cGAS activity in reporter THP1 cell line. Kind of assay: Cellular assay to measure cGAS activity (ISRE-Gaussia luciferase reporter THP1 cells, ISD transfection). Type of assay: cell-based. Conditions: Homo sapiens, THP-1, 2 μg/mL ISD transfection, 16 hours, luciferase luminescence. How it is done: Cellular assay to measure cGAS activity: Reporter THP1 cell line harboring a gene encoding Gaussia Luciferase under the control of 5 tandem repeats of interferon-stimulated response elements (ISRE) fused to an ISG54 minimal promoter was used to test inhibition of cGAS activity by synthetic compounds in human cells. These cells were plated on 96-well plates at 0.3×10^6/well and incubated with serial dilutions of compounds or DMSO for 5 min, followed by transfection of 2 μg/mL of ISD (Interferon Stimulatory DNA, a 45 bp DNA oligo) or mock transfected using lipofectamine 2000 (Life Technology) method, according to manufacturer's instructions. 16 hours later, 15 μL of the media from each well was transferred to a new plate, 50 μL of solution containing 50 mM Hepes-NaOH, pH 6.5, 50 mM NaCl, 10 mM EDTA, 1 μM of coeleanterazine is added to each well and luminescence is measured immediately. Fold increase in luminescence compared to mock transfection was plotted against concentrations of each compound, and IC50 is calculated using Graphpad. To evaluate the specificity of a compound, the same procedure is performed except that cells are transfected with 2 μg/mL […] or infected with Sendai Virus (SeV) at 50 Unit/mL, which are known to activate the RIG-I-MAVS pathway. A specific inhibitory compound should inhibit interferon induction by DNA but have minimal effect on poly(I:C) or Sendai virus induced interferon reporter gene expression.
The letter codes for cGAS IC50 include: A (<2 μM); B (2-10 μM); C (>10 μM).
A general note: A reporter such as luciferase makes a cellular process visible.

Assay [2] has as its target T1, recombinant human cGAS (aa147-522) (Homo sapiens, UniProt Q8N884).
T1 construct: recombinant human cGAS (aa147-522); His6-SUMO (N, cleaved yes); made in house; host or cells: E. coli BL21/pLys
Kind of assay: In vitro inhibition assay of cGAS activity (KinaseGlo, ATP consumption). The class given is biochemical. Particulars: Herring testis DNA, 6.6 μM ATP, 0.1 mM GTP, 37° C. 20 minutes. How it is done: Expression and Purification of Recombinant cGAS Protein: cDNA encoding full-length or amino acids 147-520 of human cGAS was inserted into a modified pET28a vector containing an in-frame His6-SUMO tag. The E. coli strain BL21/pLys harboring the plasmid was induced with 0.5 mM IPTG at 18° C. overnight. His6-SUMO tag was removed by a SUMO protease digestion following purification of the His6-SUMO-cGAS as described previously (Sun et al, 2013, Science 339, 786).
In vitro inhibition assay of cGAS activity: A 60 μL mixture containing 20 mM Tris-Cl, pH 7.5, 5 mM MgCl2, 0.2 mg/mL BSA, 0.01 mg/mL Herring testis DNA, 6.6 μM ATP, 0.1 mM GTP, 1.5 μg/mL of recombinant human cGAS (aa147-522) and serial dilutions of a test compound in DMSO is added to a 96-well plate and incubated at 37° C. for 20 minutes. At the end of reaction, 40 μL of KinaseGlo Max (Promega) is added and chemiluminescence was measured with a luminometer. Inhibitory effect of a compound is evaluated by plotting percentage of ATP consumption against logarithm of compound concentrations. IC50 value is calculated using GraphPad Prism 8 (GraphPad Software, Inc.).
The letter codes for cGAS IC50 include: A (<2 μM); B (2-30 μM); C (>30 μM).
(In general: In Kinase-Glo more light means more ATP remaining.)

As a reminder, the IC50 is the concentration at which inhibition is half-maximal.

T1 sequence (Q8N884 147-522): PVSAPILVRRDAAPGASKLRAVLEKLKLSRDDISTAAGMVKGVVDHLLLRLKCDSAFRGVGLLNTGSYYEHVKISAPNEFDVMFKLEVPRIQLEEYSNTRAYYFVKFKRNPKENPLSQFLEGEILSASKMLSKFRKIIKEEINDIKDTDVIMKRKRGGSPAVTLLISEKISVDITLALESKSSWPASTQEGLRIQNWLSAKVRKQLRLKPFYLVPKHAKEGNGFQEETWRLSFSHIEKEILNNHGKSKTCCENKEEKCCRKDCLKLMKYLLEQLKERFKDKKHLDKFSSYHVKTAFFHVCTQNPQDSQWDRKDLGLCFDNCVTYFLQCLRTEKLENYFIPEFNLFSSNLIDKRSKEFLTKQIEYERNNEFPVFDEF

Regarding `O=C(O)CCOC[C@@H]1CCCN1c1cc(-n2cncn2)c2ccc(Cl)c(Cl)c2n1` [I-892], the IC50 is less than 2 µM in assay [1] and less than 2000 nM in assay [2].
On the same counts, the results for `O=C(O)CCOC[C@@H]1CCCN1c1cc(-n2cncn2)c2cc(Cl)c(Br)cc2n1` [I-893] are less than 2 µM and less than 2000 nM.
The matching figures for `Cc1c(Br)ccc2c(-n3cncn3)cc(N3CCC[C@H]3COCCC(=O)O)nc12` [I-894]: less than 2 µM and less than 2000 nM.
On the same counts, the results for `O=C(O)CCOC[C@@H]1CCCN1c1cc(-n2cncn2)c2cc(Br)c(Cl)c(Cl)c2n1` [I-895] are less than 2 µM and less than 2000 nM.
For `O=C(O)CCOC[C@@H]1CC2(CC2)CN1c1cc(-n2cncn2)c2cc(Cl)c(Br)cc2n1` [I-896], the results for the IC50 in assay [1] and in assay [2] were less than 2 µM and less than 2000 nM, respectively.
On the same counts, the results for `O=C(O)CCOC[C@@H]1CC2(CC2)CN1c1cc(-n2cncn2)c2cc(Br)c(Cl)c(Cl)c2n1` [I-897] are less than 2 µM and less than 2000 nM.
The matching figures for `O=C(O)CCOC[C@@H]1CC2(CC2)CN1c1cc(-n2cncn2)c2ccc(Cl)c(Cl)c2n1` [I-898]: less than 2 µM and less than 2000 nM.
On the same counts, the results for `O=C(O)CCOC[C@@H]1CCCN1c1cc(-c2cnn[nH]2)c2ccc(Cl)c(Cl)c2n1` [I-899, (S)-3-((1-(7,8-dichloro-4-(1H-1,2,3-triazol-4-yl)quinolin-2-yl)pyrrolidin-2-yl)methoxy)propanoic acid] are less than 2 µM and less than 2000 nM.
`O=C(O)CCOC[C@@H]1CCCN1c1cc(-n2ccnn2)c2ccc(Cl)c(Cl)c2n1` [I-900, (S)-3-((1-(7,8-dichloro-4-(1H-1,2,3-triazol-1-yl)quinolin-2-yl)pyrrolidin-2-yl)methoxy)propanoic acid]: the IC50 in assay [1] is less than 2 µM; in assay [2], less than 2000 nM.
On the same counts, the results for `O=C(O)CCOC[C@@H]1CCCN1c1cc(-c2ncn[nH]2)c2ccc(Br)cc2n1` [I-901, (S)-3-((1-(7-bromo-4-(4H-1,2,4-triazol-3-yl)quinolin-2-yl)pyrrolidin-2-yl)methoxy)propanoic acid] are greater than 10 µM and 2000 to 30000 nM.
For the molecule `O=C(O)CCOC[C@@H]1CCCN1c1cc(-c2cnoc2)c2ccc(Cl)c(Cl)c2n1` [I-902], the IC50 was 2 to 10 µM in assay [1] and less than 2000 nM in assay [2].
On the same counts, the results for `O=C(O)CCOC[C@@H]1CCCN1c1cc(-c2cnco2)c2ccc(Br)cc2n1` [I-903, (S)-3-((1-(7-bromo-4-(oxazol-5-yl)quinolin-2-yl)pyrrolidin-2-yl)methoxy)propanoic acid] are 2 to 10 µM and less than 2000 nM.
The matching figures for `O=C(O)CCOC[C@@H]1CCCN1c1cc(-c2cocn2)c2ccc(Cl)c(Cl)c2n1` [I-904]: greater than 10 µM and greater than 30000 nM.
Take `O=C(O)CCOC[C@@H]1CCCN1c1cc(-c2ccsc2)c2ccc(Cl)c(Cl)c2n1` [I-905]: the IC50 in assay [1] is greater than 10 µM; in assay [2], greater than 30000 nM.
On the same counts, the results for `O=C(O)CCOC[C@@H]1CCCN1c1cc(-c2cnsc2)c2ccc(Cl)c(Cl)c2n1` [I-906] are less than 2 µM and less than 2000 nM.
The matching figures for `O=C(O)CCOC[C@@H]1CCCN1c1cc(-c2cncs2)c2ccc(Cl)c(Cl)c2n1` [I-907]: less than 2 µM and less than 2000 nM.
For the molecule `O=C(O)CCOC[C@@H]1CCCN1c1cc(-c2cscn2)c2ccc(Cl)c(Cl)c2n1` [I-908], the values for the IC50 in assay [1] and in assay [2] were greater than 10 µM and greater than 30000 nM, respectively.
The matching figures for `O=C(O)CCOC[C@@H]1CCCN1c1cc(-c2cccc(CO)c2)c2ccc(Cl)c(Cl)c2n1` [I-909]: greater than 10 µM and greater than 30000 nM.
On the same counts, the results for `O=C(O)CCOC[C@@H]1CCCN1c1cc(-c2cccc(O)c2)c2ccc(Cl)c(Cl)c2n1` [I-910] are greater than 10 µM and greater than 30000 nM.
`COc1ccc(-c2cc(N3CCC[C@H]3COCCC(=O)O)nc3c(Cl)c(Cl)ccc23)cc1` [I-911]: the results for the half-maximal inhibitory concentration (IC50) in assay [1] and in assay [2] were greater than 10 µM and greater than 30000 nM, respectively.
On the same counts, the results for `COc1cccc(-c2cc(N3CCC[C@H]3COCCC(=O)O)nc3c(Cl)c(Cl)ccc23)c1` [I-912] are greater than 10 µM and greater than 30000 nM.
On the same counts, the results for `O=C(O)CCOC[C@@H]1CCCN1c1cc(-c2ccc(F)cc2)c2ccc(Cl)c(Cl)c2n1` [I-913] are greater than 10 µM and greater than 30000 nM.
On the same counts, the results for `O=C(O)CCOC[C@@H]1CCCN1c1cc(-c2cccc(F)c2)c2ccc(Cl)c(Cl)c2n1` [I-914] are greater than 10 µM and 2000 to 30000 nM.
Regarding `O=C(O)CCOC[C@@H]1CCCN1c1cc(-c2cccnc2)c2ccc(Cl)c(Cl)c2n1` [I-915], the IC50 is greater than 10 µM in assay [1] and greater than 30000 nM in assay [2].
Consider `O=C(O)CCOC[C@@H]1CCCN1c1cc(-c2ccncc2)c2ccc(Cl)c(Cl)c2n1` [I-916], for which the figures for the IC50 in assay [1] and in assay [2] were greater than 10 µM and greater than 30000 nM, respectively.
The matching figures for `O=C(O)CCOC[C@@H]1CCCN1c1cc(-c2cncnc2)c2ccc(Cl)c(Cl)c2n1` [I-917]: greater than 10 µM and less than 2000 nM.
`O=C(O)CCOC[C@@H]1CCCN1c1cc(-c2ccnnc2)c2ccc(Cl)c(Cl)c2n1` [I-918]: the IC50 was greater than 10 µM in assay [1] and greater than 30000 nM in assay [2].
On the same counts, the results for `O=C(O)CCOC[C@@H]1CCCN1c1cc(N2CCOCC2)c2ccc(Cl)c(Cl)c2n1` [I-919] are greater than 10 µM and greater than 30000 nM.
The matching figures for `O=C(O)CCOC[C@@H]1CCCN1c1cc(N2CCNCC2)c2ccc(Cl)c(Cl)c2n1` [I-920]: greater than 10 µM and greater than 30000 nM.
The matching figures for `CN1CCN(c2cc(N3CCC[C@H]3COCCC(=O)O)nc3c(Cl)c(Cl)ccc23)CC1` [I-921]: greater than 10 µM and greater than 30000 nM.
Take `O=C(O)CCOC[C@@H]1CCCN1c1cc(C2=CCNC2)c2ccc(Cl)c(Cl)c2n1` [I-922]: the IC50 was greater than 10 µM in assay [1] and greater than 30000 nM in assay [2].
With `O=C(O)CCOC[C@@H]1CCCN1c1cc(C2=CNCC2)c2ccc(Cl)c(Cl)c2n1` [I-923], the 50% inhibitory concentration (IC50) in assay [1] is greater than 10 µM; in assay [2] it was 2000 to 30000 nM.
The matching figures for `O=C(O)CCOC[C@H]1CCCN1c1cc(-n2cncn2)c2cc(Cl)c(Br)cc2n1` [I-924]: greater than 10 µM and 2000 to 30000 nM.
The matching figures for `O=C(O)CCOC[C@H]1CCCN1c1cc(-n2cncn2)c2cc(Br)c(Cl)c(Cl)c2n1` [I-925]: less than 2 µM and less than 2000 nM.
The matching figures for `O=C(O)CCOC[C@H]1CC2(CC2)CN1c1cc(-n2cncn2)c2cc(Br)c(Cl)c(Cl)c2n1` [I-926]: less than 2 µM and less than 2000 nM.
With `O=C(O)CCOC[C@@H]1C[C@@H]2C[C@@H]2N1c1cc(-n2cncn2)c2cc(Cl)c(Br)cc2n1` [I-927], the concentration for half-maximal inhibition (IC50) in assay [1] is less than 2 µM; in assay [2], less than 2000 nM.
On the same counts, the results for `C[C@H]1C[C@@H](COCCC(=O)O)N(c2cc(-n3cncn3)c3cc(Cl)c(Br)cc3n2)C1` [I-928] are less than 2 µM and less than 2000 nM.
The matching figures for `O=C(O)CCOC[C@@H]1C[C@H](C(F)(F)F)CN1c1cc(-n2cncn2)c2cc(Cl)c(Br)cc2n1` [I-929]: less than 2 µM and less than 2000 nM.
The matching figures for `O=C(O)CCOC[C@@H]1C[C@@H]2C[C@@H]2N1c1cc(-n2cncn2)c2cc(Br)c(Cl)c(Cl)c2n1` [I-930]: less than 2 µM and less than 2000 nM.
In the case of `O=C(O)CCOC[C@@H]1CCCN1c1cc(-n2cncn2)c2cc(Cl)c(Cl)cc2n1` [I-931], the IC50 is less than 2 µM in assay [1] and less than 2000 nM in assay [2].
Regarding `O=C(O)CCOC[C@@H]1CCCN1c1cc(-n2cncn2)c2c(Cl)c(Cl)ccc2n1` [I-932], the IC50 in assay [1] is less than 2 µM; in assay [2], less than 2000 nM.
On the same counts, the results for `COC(=O)[C@@H]1[C@@H](O)CCN1c1cc(-n2cncn2)c2cc(Br)c(Cl)c(Cl)c2n1` [I-933] are less than 2 µM and less than 2000 nM.
